# From patent US9403873B2, “Peptides targeting receptor activator of nuclear factor-κB (RANK) and their applications” (UNIVERSITE DE NANTES, priority 2011, dated 2016)
# “Also recorded” adds a separate entry of the source. Ends that are not written are not given here.
# How the values were obtained:
# hRANK = target: T1, hRANK (Homo sapiens, UniProt Q9Y6Q6); experiment: Surface plasmon resonance (Biacore) binding to immobilized RANK-Fc; conditions: SPR, 1:1 Langmuir model
# T1 construct: For NMR experiments with soluble RANK receptor-Fc (R&D Systems); purchased R&D Systems
# T1 sequence (Q9Y6Q6 30-212 limits assumed): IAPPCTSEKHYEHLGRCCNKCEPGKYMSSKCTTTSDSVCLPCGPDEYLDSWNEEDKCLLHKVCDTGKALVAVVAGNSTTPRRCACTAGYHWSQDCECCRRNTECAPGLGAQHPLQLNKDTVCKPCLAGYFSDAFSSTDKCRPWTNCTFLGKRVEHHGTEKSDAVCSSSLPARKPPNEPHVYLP
# Protocol: Biosensor experiments were carried out on a BIAcore 3000 instrument (BIAcore) as published previously (Baud′Huin et al. 2009). Recombinant purified RANKL (2 μg/mL in 5 mM maleate, pH 5.75) or RANK-Fc carrier-free (5 μg/mL in sodium acetate buffer, pH 5.0) were covalently immobilized to the dextran matrix of a CM5 sensor chip (BIAcore) at a flow rate of 5 μL/min. Immobilization levels ranging from 400 to 3000 Response Units (RU) for RANKL or 5000 RU for RANK were obtained. Binding assays were performed at 25° C. in 10 mM Hepes buffer, pH 7.4. The association phase was 180 seconds followed by a dissociation phase in the same buffer. Polypeptides binding studies to RANK or RANKL were determined using single cycle kinetics, starting with 100 μM of the polypeptide of interest followed by 2-fold serial dilutions (ranging from 100 to 0.78 μM). The sensorgrams were fitted to calculate the equilibrium-dissociation constants using the Langmuir 1:1 model with BiaEval 4.1 software (BIAcore). RANK-Fc CF, RANKL and OPG carrier-free were obtained from R&D Systems (Minneapolis, Minn., USA).
# murine CD11b+ cells = assay type: cell-based, mouse
# Excerpt: Human peripheral blood mononuclear cells (PBMCs) were isolated by centrifugation over Ficoll gradient (Sigma, Saint Quentin Fallavier, France). CD14^+ cells were magnetically labeled with CD14 Microbeads and positively selected by MACS technology (Miltenyi Biotec, Paris, France) as described previously (Duplomb et al. 2008). CD11b^+ monocytes were purified from murine bone marrow cells obtained by flushing the bone marrow from femora and tibiae of 4-week-old C57BL6 male mice, using MACS microbeads (Baud'huin et al. 2010). The purity of cell preparations was around 96%, as controlled by flow cytometry. Generation of osteoclasts from human CD14^+ and murine CD11b^+ monocytes was performed as described previously (Duplomb et al. 2008, Baud′huin et al. 2010). Briefly, purified cells were cultured in α-minimum essential medium (α-MEM, Gibco/Invitrogen, USA) with 10% fetal calf serum and 25 ng/mL human/murine macrophage colony-stimulating factor (M-CSF, R&D Systems, Abindgton, UK). After 3 days of culture, cell medium was replaced by fresh medium containing M-CSF and recombinant human RANKL (100 ng/mL, R&D system), supplemented with or without a polypeptide of interest (0.5-100 μM) or 50 ng/mL human OPG (R&D Systems) used as a reference inhibitor. Soluble cytokines, receptor and polypeptides were renewed every 3 days until multinucleated osteoclasts had formed. After 12 days of culture for CD14^+ cells and 15 days for CD11b^+ cells, osteoclasts were visualized by TRAP staining (Sigma, France) and cells formed with three or more nuclei were manually counted and analyzed statistically.
# [1] = system: mesenchymal stem cells (MSCs); experiment: Mineralization of mesenchymal stem cells (Alizarin red staining); assay type: cell-based; conditions: 100 μM
# [2] = system: cathepsin K, TRAP and NFATc1 mRNA in CD14+ cells; experiment: Real-time RT-PCR of osteoclast marker genes in CD14+ cells; assay type: cell-based, human; conditions: CD14+ cells with M-CSF and RANKL; day 3 to day 11 after RANKL stimulation
# [3] = system: RANKL-induced signaling (Akt, p38, ERK, NF-κB) in RAW264.7 cells; experiment: Western blot of RANKL-induced signaling in RAW264.7 cells; assay type: cell-based, murine
# Protocol: After treatment for 5, 10, 15, 30 or 60 minutes at 37° C., total cell lysates were obtained and protein concentrations were determined as described previously (Duplomb et al. 2008). For NF-κB pathway analysis, separate cytoplasmic and nuclear protein fractions were obtained using the NE-PER Nuclear and Cytoplasmic Extraction Kit (Thermo Scientific, UK). Proteins (40 μg) were run on 10% SDS—PAGE and transferred to Immobilon-P membranes (Millipore, Billerica, Mass., USA), which were then incubated with antibodies to Akt, phospho-Akt, ERK 1/2, phospho-ERK 1/2, p38, phospho-p38, IκBα, p105, p65, p50 and Rel B (Cell Signalling, Danvers, Mass., USA). The labeled proteins were detected using the ECL reagent (Pierce, Rockford, Ill., USA). β-Actin (total cell extract or cytoplasmic fraction), histone H3, and HDAC (nuclear fraction) were used as housekeeping proteins (Cell Signalling).
# (§1) Murine RAW264.7 cells (ATCC) were cultured in αMEM (Invitrogen) supplemented with 10% FBS (Hyclone). Human embryonic kidney 293 cells (ATCC) were stably transduced with an expression-ready clone (Ex-00007-Lv105, OmicsLink™ Expression Clone, GeneCopoeia™) containing the ORF cDNA of RANK/TNFRSF11A. HEK-RANK cells were maintained in DMEM (Lonza), 10% FBS and 1 μg/mL puromycin.
# [4] = system: HEK-RANK cells (human embryonic kidney cells overexpressing RANK); experiment: RANK signaling and receptor half-life study in HEK-RANK cells; assay type: cell-based
# Protocol: (A) Inhibition of activation of Akt, p38 and ERK by Pep8 (50 μM) was assessed as inhibition of phosphorylation (p) in RAW264.7 cells using Western blot analysis with antibodies against phospho-Akt, phospho-p38 and phospho-ERK. Immunoblots were stripped and then reprobed with antibodies against Akt, p38 and ERK. β-Actin served as loading control. (B) Western blot analyses of NF-κB distribution in the presence or absence of 50 μM Pep8. After treatment with the polypeptide, RAW264.7 cells were fractionated into nuclear and cytoplasmic portions. Nuclear proteins (45 μg) were analyzed with anti-NF-κB p105, p50 and p65 antibodies, while cytoplasmic proteins (30 μg) were analyzed with anti-IκBα. For the non-canonical NF-κB pathway, RelB expression was analyzed in both fractions. β-Actin, HDAC1 and Histone H3 served as loading controls for the cytoplasmic and nuclear fractions, respectively. A representative experiment is shown; time after RANKL stimulation is indicated in parenthesis. (C) Receptor half-life study. […] RANK expression was determined with anti-RANK/TNFRSF11A.
# as §1, with “HEK-RANK cells were maintained in DMEM (Lonza), 10% FBS and 1 μg/mL puromycin.” left out
# [5] = 50 μM, 15 minutes of RANKL treatment
sequence,measurement,setting,value
"NVLKLCSGE [Pep8, NVLKLCSGE]",kon,hRANK; read-out: association rate constant (kon),495 M⁻¹ s⁻¹
same,koff,hRANK; read-out: dissociation rate constant (koff),0.0052 s⁻¹
same,IC50,murine CD11b+ cells,30 µM
same,IC50 of osteoclast formation,murine CD11b+ cells,29 µg/mL
same,"number of TRAP-positive multinucleated cells, % of the number formed without the polypeptide","murine CD11b+ cells; 100 μM, murine cultures",28%
same,effect on mineralization of MSCs,[1],nor did the polypeptide at 100 μM exhibit any effect
same,"mRNA expression of cathepsin K, TRAP and NFATc1",[2],inhibited the mRNA expression; also recorded: markedly reduced
same,RANKL-induced degradation of IκBα and nuclear translocation of p50 and p65,[3]; 50 μM,blocked
same,expression levels of RelB in cytoplasmic and nuclear fraction,[3]; 50 μM,no effect
same,RANKL-induced Akt phosphorylation,"[3]; 50 μM, 5 minutes of RANKL treatment",exhibited an inhibitory effect
same,RANKL-induced phosphorylation of ERK,[3]; [5],inhibited phosphorylation
same,RANKL-induced phosphorylation of p38,[3]; [5],inhibited phosphorylation
same,basal phosphorylation of p38,[3]; absence of RANKL stimulation,decreased phosphorylation of p38 even in the absence of RANKL stimulation
same,activation of p38 after stimulation with RANKL,[4],strongly inhibited
same,degradation of RANK in presence of cycloheximide,"[4]; CHX 4 μg/mL, Pep8 200 μM, compared with RANKL","lead to a degradation of RANK, although to a somewhat lesser extent"
